For one data set, the target named is T1, hNav1.7 (Homo sapiens, UniProt Q15858).
T1 construct: expressed in transfected cells; host or cells: HEK293
The data set is described as follows: Fluorescent (FRET) based sodium channel assay, hNav1.7. In kind it is cell-based. The note with it: HEK293 stably transfected with hNav1.7, 20 μM veratridine, read-out: hNav 1.7 IC50. How it is done:
Two isoforms of the channel were examined: hNav1.5, a cardiac sodium channel associated with arrhythmias, and hNav1.7, an isoform found in the peripheral nervous system.
HEK293 cells stably transfected with either hNav1.5 or hNav1.7 were plated at approximately 11,000-20,000 cells/well in flat bottom, poly-D-lysine coated black-wall, clear-bottom, 384-well plates (Becton Dickinson, Bedford, Mass.), and incubated overnight at 37° C. in a 10% CO2 atmosphere in growth medium. Cells were washed with 0.03 mL of Dulbecco's phosphate buffered saline (D-PBS) containing calcium and magnesium. Cells were then incubated with 0.025 mL of a solution containing 10 μM CC2-DMPE and 0.02% pluronic acid in D-PBS with calcium and magnesium; supplemented with 10 mM glucose, and 10 mM Hepes-NaOH, pH 7.4. […] Afterwards, cells were incubated in the dark at 25° C. for 45 min with 0.025 mL of a solution containing 5 μM DiSBAC2(3) in VIPR-S, in the absence or presence of test compound. At the end of the incubation period, the plate was placed in a FLIPR TETRA instrument (MDS Analytical Technologies, Sunnyvale Calif.), illuminated at 390-420 nm, and fluorescence emissions were recorded at approximately 1 Hz at 460 and 580 nm. Following a 7 second baseline reading, 0.025 mL of VIPR-S containing 10 μM veratridine for Nav1.5 or 20 μM veratridine for Nav1.7 was added to each well, and the emissions of both dyes were recorded for an additional 33 seconds. The change in fluorescence resonance energy transfer (FRET) ratio (F/F0) was calculated as: F/F0=((A460/A580/(I460/I580) where A and I represent the readings after or before addition of veratridine, respectively, at the indicated wavelengths. For I, the readings from 2-5 seconds were averaged, and for A, readings from 3 seconds after the signal had reached a plateau level (usually within 30-40 s) were also averaged. Triplicate measurements were performed for each experimental condition and the data were averaged.

The target of another data set is T2, hERG potassium channels (Homo sapiens, UniProt Q12809).
T2 construct: expressed in transfected cells; host or cells: HEK-293 (membranes)
Briefly: hERG binding assay ([35S]MK-499 displacement). The note with it: [35S]MK-499, HEK-293 hERG membranes. The source says:
All four compounds were also counter-screened for human ether-a-go-go-related gene (hERG) activity against the radio-ligand MK-0499. Blockade of hERG K^+ channels is widely regarded as the predominant cause of drug-induced QT prolongation. (Aronov, A J Med Chem. 2006 Nov. 16; 49(23):6917-21).
MK-499, a potent hERG blocker, was used in a ligand binding assay to evaluate the binding of test compounds to hERG potassium channels as previously described (Wang, J et al. Am J Physiol Heart Circ Physiol, 2003, 284: H256-H267).^2 Test compounds were incubated with 0.05 nM of radiolabeled MK-499 ([35S]MK-499; specific Activity=1,279,010 μCi/μmol) in an assay buffer solution (70 mM NaCl, 60 mM KCl, 10 mM HEPES/NaOH (pH 7.4), 2 mM MgCl2, 1 mM CaCl2) also containing membranes isolated from HEK-293 cells stably expressing hERG channels in 96 well polypropylene deep-well assay plates at room temperature (25° C.) for >90 min. Assay plates were rinsed three time with buffer (130 mM NaCl, 10 mM HEPES/NaOH (pH 7.4), 2 mM MgCl2, 1 mM CaCl2) and the solution transferred to a Packard FilterMate Universal Harvester apparatus and filtered using PerkinElmer UniFilter-96 GF/C 96-well white microplates pre-soaked with 0.3% BSA (10 mL/L of 30% BSA). Plates were dried overnight at 37° C., or for 2 hrs at 56° C. The bottom of the plates were sealed and 0.025 mL of Microscint 0 was added to each well. The plates were top sealed and counted for 2 min/well in a Packard TopCount Scintillation counter. Test compounds were evaluated in a five point titration format using half-log steps from 0.3 μM to 30 μM. […] Less than 5% of the added radioactivity was retained on the filters. Assays were performed in triplicate.
A general note: hERG is a cardiac potassium channel; its block is linked to QT prolongation.

In data set [1] the target is T3, human Nav channel isoform, Nav1.2 (Homo sapiens, UniProt Q99250).
T3 construct: expressed in transfected cells; host or cells: HEK 293
The data set is described as follows: Patch clamp electrophysiology of compound 1 on Nav1.2 in HEK 293. In kind it is cell-based. The note with it: HEK293, HEK 293 Nav1.2, holding −60 mV to +10 mV, read-out: inhibition of Nav channel current. How it is done:
The effects of the racemic mixture and enantiomers of compound 1 were also examined by patch clamp electrophysiology on the human Nav channel isoform, Nav1.2, stably expressed in human embryonic kidney cells (HEK 293). Nav currents were elicited by step depolarizations from a holding potential of −60 mV to +10 mV for 25 ms at 15 s intervals. Sodium currents were record during a control drug free condition, after 5 mins of drug perfusion and following washout. […] The racemic mixture inhibited the sodium channel current by 31.9±2.9% (n=3) at 1 μM and by 87.0±3.1% (n=3) at 10 μM (FIG. 14). All drug effects were fully reversible on washout.
Sodium currents were recorded using the whole-cell configuration of the patch clamp recording technique with an Axopatch 200 amplifier (Axon Instruments, Foster City, Calif.). All voltage protocols were applied using pCLAMP 9 software (Axon, USA) and a Digidata 1322A (Axon, USA). Currents were amplified and low pass filtered (2 kHz) and sampled at 33 kHz. Borosilicate glass pipettes were pulled using a Brown-Flaming puller (model P87, Sutter Instruments Co, Novato, Calif.) and heat polished to produce electrode resistances of 1.5-3.0 MΩ when filled with the following electrode solution (in mM); CsCl 130, MgCl2 1, MgATP 5, BAPTA 10, HEPES 5 (pH adjusted to 7.4 with CsOH). Cells were plated on glass coverslips and superfused with solution containing the following composition; (in mM) NaCl 130, KCl 4, CaCl2 1, MgCl2 5, HEPES 5, and glucose 5 (pH adjusted to 7.4 with NaOH). Compounds were prepared as 100 mM stock solutions in dimethyl sulfoxide (DMSO) and diluted to desired concentration (1 μM or 10 μM) in perfusion solution. All experiments were performed at room temperature (20-22° C.). After establishing whole-cell, a minimum series resistance compensation of 75% was applied and cells were held at −100 mV for 5 minutes to account for equilibrium gating shifts. Sodium currents were evoked by stepping to +10 mV from a holding potential of −60 mV for 25 ms at 15 s intervals. After control recordings, test compounds were applied for five minutes to allow for bath equilibration. Tonic block was assessed by comparing peak sodium current in drug free conditions to peak current when drug was present. Data analysis was performed using Clampfit software (v9, Axon Instruments, CA, USA) and Origin (v6, Microcal Software, MA, USA).

The next data set concerns CWR22rv-1 cells. Briefly: CWR22rv-1 prostate cancer cell death (propidium iodide, FACS). In kind it is cell-based, human. How it is done: CWR22Rv1 cells (ATCC, Manassas, Va.) were seeded in 6 well tissue culture plate at density of 300,000 cells/well and maintained in RPMI 1640 (Mediatech, Herndon, Va.) containing 10% fetal bovine serum, 2.5 mM L-glutamine, and penicillin-streptomycin (100 IU/ml and 100 μg/ml, respectively) at 37° C. with 5% CO2. Cells were then switched to serum free RPMI media overnight prior to drug treatment. Compounds were dissolved in 100% dimethylsulfoxide (DMSO) and diluted to the desired concentrations in serum free RPMI. Cells were treated with indicated drug concentrations (in triplicate per treatment point) for 24, 48, 72 hour. After treatment, cells were harvested by trypsinization and fixed in 70% ethanol. The fixed cells were then stained with propidium iodide (50 μg/ml) after treatment with RNase (5 μg/ml). The stained cells were analyzed for DNA content using FACSsort (Becton Dickinson). Cell cycle fractions were quantified with Cell Quest (Becton Dickinson) or ModFit LT (Verity Software House).

Another data set deals with human prostate tissue. Briefly: Staining of human prostate paraffin embedded tissue slices. The note with it: 100 μM. How it is done: The binding and localization of compound 26 in prostate and prostate cancer tissue was studied. Human prostate paraffin embedded tissue slices were stained with 100 μM of compound 26 and dansyl amine.

T3 sequence (Q99250 whole entry, canonical isoform): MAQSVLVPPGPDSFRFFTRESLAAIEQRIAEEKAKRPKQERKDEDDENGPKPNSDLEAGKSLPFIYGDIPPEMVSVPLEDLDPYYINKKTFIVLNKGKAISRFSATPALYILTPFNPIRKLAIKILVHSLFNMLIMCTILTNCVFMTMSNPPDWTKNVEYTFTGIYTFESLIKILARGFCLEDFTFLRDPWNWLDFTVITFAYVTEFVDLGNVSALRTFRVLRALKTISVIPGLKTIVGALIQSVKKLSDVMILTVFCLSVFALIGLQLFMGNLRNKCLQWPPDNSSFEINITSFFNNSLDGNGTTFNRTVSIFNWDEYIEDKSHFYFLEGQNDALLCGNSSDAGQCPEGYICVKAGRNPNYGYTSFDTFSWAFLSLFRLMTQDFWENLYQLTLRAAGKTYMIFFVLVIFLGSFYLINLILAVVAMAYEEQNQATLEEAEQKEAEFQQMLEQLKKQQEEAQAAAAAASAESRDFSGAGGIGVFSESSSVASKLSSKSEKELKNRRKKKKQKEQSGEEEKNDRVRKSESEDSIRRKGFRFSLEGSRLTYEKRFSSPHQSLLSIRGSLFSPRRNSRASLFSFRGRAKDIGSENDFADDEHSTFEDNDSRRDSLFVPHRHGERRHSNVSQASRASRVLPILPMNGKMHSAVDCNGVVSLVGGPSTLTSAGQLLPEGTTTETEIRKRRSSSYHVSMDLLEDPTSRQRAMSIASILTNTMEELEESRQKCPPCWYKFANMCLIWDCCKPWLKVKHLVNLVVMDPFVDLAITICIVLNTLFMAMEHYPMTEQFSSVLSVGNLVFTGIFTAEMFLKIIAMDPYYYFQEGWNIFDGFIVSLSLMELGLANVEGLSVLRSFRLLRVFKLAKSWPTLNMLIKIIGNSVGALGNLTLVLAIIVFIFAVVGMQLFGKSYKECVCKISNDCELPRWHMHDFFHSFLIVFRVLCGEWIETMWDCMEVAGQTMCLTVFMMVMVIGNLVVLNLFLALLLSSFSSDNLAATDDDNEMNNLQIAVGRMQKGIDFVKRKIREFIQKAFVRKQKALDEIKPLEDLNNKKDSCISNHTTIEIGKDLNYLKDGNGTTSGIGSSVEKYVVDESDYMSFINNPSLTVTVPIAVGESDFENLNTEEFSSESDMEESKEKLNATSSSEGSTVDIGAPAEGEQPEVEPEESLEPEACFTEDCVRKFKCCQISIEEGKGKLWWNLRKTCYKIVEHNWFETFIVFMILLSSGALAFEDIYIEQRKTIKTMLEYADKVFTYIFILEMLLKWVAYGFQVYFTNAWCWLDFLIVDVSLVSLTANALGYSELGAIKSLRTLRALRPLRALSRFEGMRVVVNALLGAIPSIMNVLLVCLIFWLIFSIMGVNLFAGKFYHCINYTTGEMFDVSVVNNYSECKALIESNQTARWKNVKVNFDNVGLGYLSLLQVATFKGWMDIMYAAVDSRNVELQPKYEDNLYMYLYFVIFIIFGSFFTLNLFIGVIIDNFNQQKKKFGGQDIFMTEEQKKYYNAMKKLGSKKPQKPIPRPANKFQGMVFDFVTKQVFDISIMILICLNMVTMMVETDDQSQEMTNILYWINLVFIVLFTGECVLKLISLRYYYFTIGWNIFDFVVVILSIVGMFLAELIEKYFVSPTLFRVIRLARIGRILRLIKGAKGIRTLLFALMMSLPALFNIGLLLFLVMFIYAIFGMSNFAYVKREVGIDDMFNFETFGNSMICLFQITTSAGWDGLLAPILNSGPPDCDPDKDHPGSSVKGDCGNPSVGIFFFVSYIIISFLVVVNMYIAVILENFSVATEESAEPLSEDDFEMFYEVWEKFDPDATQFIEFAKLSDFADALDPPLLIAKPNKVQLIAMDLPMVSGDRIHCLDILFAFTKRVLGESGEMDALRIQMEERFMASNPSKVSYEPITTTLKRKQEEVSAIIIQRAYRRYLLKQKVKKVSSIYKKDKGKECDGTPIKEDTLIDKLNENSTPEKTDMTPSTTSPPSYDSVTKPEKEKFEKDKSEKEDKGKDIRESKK
T2 sequence (Q12809 whole entry): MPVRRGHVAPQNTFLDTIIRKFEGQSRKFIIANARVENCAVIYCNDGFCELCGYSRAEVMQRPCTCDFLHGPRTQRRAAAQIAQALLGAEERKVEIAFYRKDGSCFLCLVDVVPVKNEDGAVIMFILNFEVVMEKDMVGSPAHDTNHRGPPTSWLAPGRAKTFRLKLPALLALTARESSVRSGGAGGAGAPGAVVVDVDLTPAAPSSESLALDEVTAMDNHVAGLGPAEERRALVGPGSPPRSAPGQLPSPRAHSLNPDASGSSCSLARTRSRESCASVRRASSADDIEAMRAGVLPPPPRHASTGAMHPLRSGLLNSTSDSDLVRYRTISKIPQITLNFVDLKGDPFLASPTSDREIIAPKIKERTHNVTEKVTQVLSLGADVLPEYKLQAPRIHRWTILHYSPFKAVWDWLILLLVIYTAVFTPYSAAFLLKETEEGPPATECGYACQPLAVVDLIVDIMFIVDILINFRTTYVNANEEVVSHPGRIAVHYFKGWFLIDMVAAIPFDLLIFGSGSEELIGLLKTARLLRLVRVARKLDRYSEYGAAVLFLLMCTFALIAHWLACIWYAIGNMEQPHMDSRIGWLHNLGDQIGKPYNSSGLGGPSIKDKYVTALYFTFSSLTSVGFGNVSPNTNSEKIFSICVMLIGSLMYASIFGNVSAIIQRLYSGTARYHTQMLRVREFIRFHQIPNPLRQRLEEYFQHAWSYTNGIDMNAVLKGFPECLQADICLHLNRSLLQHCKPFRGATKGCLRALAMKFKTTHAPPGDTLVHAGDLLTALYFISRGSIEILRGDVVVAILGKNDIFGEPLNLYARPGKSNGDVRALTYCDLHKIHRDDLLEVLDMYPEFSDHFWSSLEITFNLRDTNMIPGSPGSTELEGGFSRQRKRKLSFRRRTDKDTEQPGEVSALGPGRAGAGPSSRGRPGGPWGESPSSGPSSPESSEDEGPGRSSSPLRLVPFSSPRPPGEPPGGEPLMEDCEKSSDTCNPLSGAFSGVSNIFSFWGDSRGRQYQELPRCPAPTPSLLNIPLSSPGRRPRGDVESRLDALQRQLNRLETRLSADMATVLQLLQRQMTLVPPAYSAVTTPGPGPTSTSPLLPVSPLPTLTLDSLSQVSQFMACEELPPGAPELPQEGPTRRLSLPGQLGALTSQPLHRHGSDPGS
T1 sequence (Q15858 whole entry): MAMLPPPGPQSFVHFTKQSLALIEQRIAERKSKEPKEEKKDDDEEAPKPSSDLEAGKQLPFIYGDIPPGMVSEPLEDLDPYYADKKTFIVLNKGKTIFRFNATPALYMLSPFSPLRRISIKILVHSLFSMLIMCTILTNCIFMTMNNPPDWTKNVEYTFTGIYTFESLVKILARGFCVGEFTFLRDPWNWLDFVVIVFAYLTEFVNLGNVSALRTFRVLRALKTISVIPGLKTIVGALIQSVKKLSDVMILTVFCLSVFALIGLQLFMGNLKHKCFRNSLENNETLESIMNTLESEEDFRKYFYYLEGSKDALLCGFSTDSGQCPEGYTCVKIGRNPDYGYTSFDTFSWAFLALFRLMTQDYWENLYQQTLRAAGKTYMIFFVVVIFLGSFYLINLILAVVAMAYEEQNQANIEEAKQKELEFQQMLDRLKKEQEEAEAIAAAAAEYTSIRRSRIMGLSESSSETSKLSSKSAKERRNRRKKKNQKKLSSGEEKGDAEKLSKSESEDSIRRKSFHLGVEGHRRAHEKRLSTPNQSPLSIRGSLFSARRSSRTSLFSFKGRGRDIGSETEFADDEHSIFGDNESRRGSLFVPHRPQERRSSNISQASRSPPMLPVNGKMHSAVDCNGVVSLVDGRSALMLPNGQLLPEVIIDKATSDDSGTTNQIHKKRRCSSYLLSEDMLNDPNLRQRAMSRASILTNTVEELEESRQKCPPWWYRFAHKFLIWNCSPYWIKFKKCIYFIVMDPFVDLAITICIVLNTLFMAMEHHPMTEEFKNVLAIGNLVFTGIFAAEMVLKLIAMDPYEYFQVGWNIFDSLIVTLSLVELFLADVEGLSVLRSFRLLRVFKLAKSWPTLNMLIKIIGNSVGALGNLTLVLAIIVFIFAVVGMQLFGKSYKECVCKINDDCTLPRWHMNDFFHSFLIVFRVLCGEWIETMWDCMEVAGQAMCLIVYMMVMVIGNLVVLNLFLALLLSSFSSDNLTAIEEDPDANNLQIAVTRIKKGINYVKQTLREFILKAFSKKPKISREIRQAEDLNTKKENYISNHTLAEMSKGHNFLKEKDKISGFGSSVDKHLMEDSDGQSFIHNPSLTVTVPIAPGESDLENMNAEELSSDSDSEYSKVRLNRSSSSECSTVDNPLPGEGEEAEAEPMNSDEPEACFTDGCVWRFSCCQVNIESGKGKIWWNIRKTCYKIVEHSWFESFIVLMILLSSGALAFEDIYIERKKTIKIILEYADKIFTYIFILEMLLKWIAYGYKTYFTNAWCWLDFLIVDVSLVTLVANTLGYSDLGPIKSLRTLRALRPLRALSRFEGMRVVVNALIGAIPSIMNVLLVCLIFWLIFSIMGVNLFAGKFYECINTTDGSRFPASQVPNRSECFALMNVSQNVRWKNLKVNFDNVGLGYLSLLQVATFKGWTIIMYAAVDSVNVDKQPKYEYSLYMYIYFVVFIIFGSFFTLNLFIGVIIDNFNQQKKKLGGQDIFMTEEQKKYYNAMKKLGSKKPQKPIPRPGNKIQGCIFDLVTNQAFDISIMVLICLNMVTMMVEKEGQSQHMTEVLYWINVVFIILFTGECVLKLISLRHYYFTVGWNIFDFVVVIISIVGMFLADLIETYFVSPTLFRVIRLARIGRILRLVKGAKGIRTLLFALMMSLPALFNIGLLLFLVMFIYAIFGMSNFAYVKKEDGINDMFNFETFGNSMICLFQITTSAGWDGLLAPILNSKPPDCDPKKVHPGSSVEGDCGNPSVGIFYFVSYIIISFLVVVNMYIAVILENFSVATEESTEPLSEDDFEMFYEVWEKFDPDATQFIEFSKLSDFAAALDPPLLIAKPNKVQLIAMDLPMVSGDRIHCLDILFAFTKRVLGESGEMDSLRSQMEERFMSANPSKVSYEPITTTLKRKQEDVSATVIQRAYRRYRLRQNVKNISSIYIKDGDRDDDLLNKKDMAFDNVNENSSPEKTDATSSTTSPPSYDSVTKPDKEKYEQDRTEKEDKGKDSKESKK

For `CCCCCCC[C@@](O)(C(N)=O)c1cccc(Cl)c1` [Compound (S)-(+)-1, (S)-(+)-2-(3-chloro-phenyl)-2-hydroxy-nonanoic acid amide], at hNav1.7, the IC50 turned out to be 2620 nM. Also, on hERG potassium channels, the “% inhibition for hERG assay, 0.3 μM” value is on record as 10%; the “% inhibition for hERG assay, 1 μM” value is 25%; the “% inhibition for hERG assay, 3 μM” value amounted to 33%; the “% inhibition for hERG assay, 10 μM” value came to 65%. Moreover, at hERG potassium channels, the “% inhibition for hERG assay, 30 μM” value was 90%. Also, in data set [1], the inhibition at 1 µM stood at 34.9 ± 2.3% and the inhibition at 10 µM was 91.5 ± 0.5%. In addition, the “cell death of CWR22rv-1 cells” value in the data set with CWR22rv-1 cells (25 μM, after 24 h) is reported as “marginal effects”. For the same molecule, in the data set on CWR22rv-1 cells (after 72 h), the “cell death of CWR22rv-1 cells” value was found to be 40%.
Consider `CCCCCCC[C@](O)(C(N)=O)c1cccc(Cl)c1` [Compound (R)-(−)-1, (R)-(−)-2-(3-chloro-phenyl)-2-hydroxy-nonanoic acid amide], for which the IC50 on hNav1.7 was 1880 nM. Besides, on hERG potassium channels, the “% inhibition for hERG assay, 0.3 μM” value was 16%; the “% inhibition for hERG assay, 1 μM” value is 26%; the “% inhibition for hERG assay, 3 μM” value stood at 20%; the “% inhibition for hERG assay, 10 μM” value turned out to be 57%. In addition, the “% inhibition for hERG assay, 30 μM” value at hERG potassium channels came out at 90%. Besides, in data set [1], the inhibition at 1 µM worked out at 67.4 ± 5.3% and the inhibition at 10 µM was 94.3 ± 0.6%. Further, the “cell death of CWR22rv-1 cells” value in the data set on CWR22rv-1 cells (25 μM, after 24 h) is listed as “approximately 25%”. Besides, in the data set on CWR22rv-1 cells (after 72 h), the “cell death of CWR22rv-1 cells” value is given as 60%.
On to `CN(C)c1cccc2c(S(N)(=O)=O)cccc12` [dansyl amine, reference compound], for which, in the data set on human prostate tissue, the “binding to human prostate tissue (microscopy)” value was “does not bind”.

By IC50 is commonly meant the point on the concentration scale where inhibition reaches its midpoint. A word on the inhibition: it is the share of the control response that was lost under treatment.
